# Assay results from patent publication US11186817B2, “Chemically defined cell culture media additive” (IUCF-HYU (INDUSTRY-UNIVERSITY COOPERATION FOUNDATION …, priority 2014, dated 2021).
# System: CHO DG44 cell line
# Test: Effective concentration range of THF: suspension growth of CHO DG44 in HY-CDM media
# Type: cell-based, Chinese hamster
# Settings: HY-CDM
# Text: 1. Cell line and media: CHO DG44 cell line was used as a DHFR-deficient cell line. The cell line was passaged 80 times or more and suspension adapted in HY-CDM (in-house) media as chemically defined media. The suspension-adapted cell line was used to evaluate the influence of tetrahydrofolate (THF) and dihydrofolate (DHF) and the growth characteristics in commercial chemically defined media. The HY-CDM media were composed of chemically defined components only. Each HY-CDM medium further included a growth factor. HY-CDM media used in Examples 1, 3, and 4 were free of an animal derived lipid mixture, and HY-CDM media used in Example 2 were supplemented with cod liver oil.
# 2. Cell suspension culture: The cell line was inoculated at a density of 4×10^5 cells/ml and cultured in an Erlenmeyer flask with a 30 ml/125 ml working volume on an orbital shaker at 120 rpm under humidified conditions at 37° C. and 5% CO2. Before inoculation, the cells were centrifuged at 1,000 rpm (×162 g) for 5 min, the supernatant was discarded, and the remaining cells were dispersed into single cells in the heated medium. The cells were passaged three times to minimize the influence of the remaining medium under the experimental conditions. The subcultured cells were evaluated.
# 3. Density of live cells: The density of live cells was analyzed using a hemocytometer (Neubauer improved bright-line, Marienfeld, Germany), an inverted microscope (CK30, Olympus, Japan), and trypan blue dye exclusion.
# In this example, the effective concentration range of THF inducing the suspension growth of the CHO DG44 cell line in the HY-CDM media was evaluated with varying amounts of THF.
# To this end, the CHO DG44 cell line was passaged three time at a THF concentration of 0-480 mg/L, and their maximum cell densities and doubling times were measured.
substance,measurement,setting,value
tetrahydrofolate [THF],"Doubling time, Average",THF 0.0016 mg/L,24.7 h
same,"Doubling time, Passage 1",THF 0.0016 mg/L,26.8 h
same,"Doubling time, Passage 2",THF 0.0016 mg/L,27.2 h
same,"Doubling time, Passage 3",THF 0.0016 mg/L,20.3 h
same,"Maximum cell density, Average",THF 0.0016 mg/L,18.9 ×10^5 cells/ml
same,"Maximum cell density, Passage 1",THF 0.0016 mg/L,19.8 ×10^5 cells/ml
same,"Maximum cell density, Passage 2",THF 0.0016 mg/L,18.2 ×10^5 cells/ml
same,"Maximum cell density, Passage 3",THF 0.0016 mg/L,18.8 ×10^5 cells/ml
same,"Doubling time, Average",THF 0.0031 mg/L,24.9 h
same,"Doubling time, Passage 1",THF 0.0031 mg/L,27.1 h
same,"Doubling time, Passage 2",THF 0.0031 mg/L,27.1 h
same,"Doubling time, Passage 3",THF 0.0031 mg/L,20.6 h
same,"Maximum cell density, Average",THF 0.0031 mg/L,19.8 ×10^5 cells/ml
same,"Maximum cell density, Passage 1",THF 0.0031 mg/L,20.6 ×10^5 cells/ml
same,"Maximum cell density, Passage 2",THF 0.0031 mg/L,18.2 ×10^5 cells/ml
same,"Maximum cell density, Passage 3",THF 0.0031 mg/L,20.5 ×10^5 cells/ml
same,"Doubling time, Average",THF 0.0063 mg/L,23.6 h
same,"Doubling time, Passage 1",THF 0.0063 mg/L,26.4 h
same,"Doubling time, Passage 2",THF 0.0063 mg/L,24.3 h
same,"Doubling time, Passage 3",THF 0.0063 mg/L,20.1 h
same,"Maximum cell density, Average",THF 0.0063 mg/L,21.3 ×10^5 cells/ml
same,"Maximum cell density, Passage 1",THF 0.0063 mg/L,21.4 ×10^5 cells/ml
same,"Maximum cell density, Passage 2",THF 0.0063 mg/L,21.2 ×10^5 cells/ml
same,"Maximum cell density, Passage 3",THF 0.0063 mg/L,21.3 ×10^5 cells/ml
same,"Doubling time, Average",THF 0.0125 mg/L,23.5 h
same,"Doubling time, Passage 1",THF 0.0125 mg/L,24.6 h
same,"Doubling time, Passage 2",THF 0.0125 mg/L,25.5 h
same,"Doubling time, Passage 3",THF 0.0125 mg/L,20.3 h
same,"Maximum cell density, Average",THF 0.0125 mg/L,21.5 ×10^5 cells/ml
same,"Maximum cell density, Passage 1",THF 0.0125 mg/L,23.6 ×10^5 cells/ml
same,"Maximum cell density, Passage 2",THF 0.0125 mg/L,18.8 ×10^5 cells/ml
same,"Maximum cell density, Passage 3",THF 0.0125 mg/L,22.0 ×10^5 cells/ml
same,"Doubling time, Average",THF 0.0250 mg/L,22.5 h
same,"Doubling time, Passage 1",THF 0.0250 mg/L,25.8 h
same,"Doubling time, Passage 2",THF 0.0250 mg/L,23.2 h
same,"Doubling time, Passage 3",THF 0.0250 mg/L,18.6 h
same,"Maximum cell density, Average",THF 0.0250 mg/L,20.5 ×10^5 cells/ml
same,"Maximum cell density, Passage 1",THF 0.0250 mg/L,22.4 ×10^5 cells/ml
same,"Maximum cell density, Passage 2",THF 0.0250 mg/L,18.0 ×10^5 cells/ml
same,"Maximum cell density, Passage 3",THF 0.0250 mg/L,21.0 ×10^5 cells/ml
same,"Doubling time, Average",THF 0.0500 mg/L,20.9 h
same,"Doubling time, Passage 1",THF 0.0500 mg/L,22.8 h
same,"Doubling time, Passage 2",THF 0.0500 mg/L,21.7 h
same,"Doubling time, Passage 3",THF 0.0500 mg/L,18.2 h
same,"Maximum cell density, Average",THF 0.0500 mg/L,20.5 ×10^5 cells/ml
same,"Maximum cell density, Passage 1",THF 0.0500 mg/L,22.0 ×10^5 cells/ml
same,"Maximum cell density, Passage 2",THF 0.0500 mg/L,18.5 ×10^5 cells/ml
same,"Maximum cell density, Passage 3",THF 0.0500 mg/L,21.0 ×10^5 cells/ml
same,"Doubling time, Average",THF 0.1000 mg/L,21.2 h
same,"Doubling time, Passage 1",THF 0.1000 mg/L,22.7 h
same,"Doubling time, Passage 2",THF 0.1000 mg/L,22.7 h
same,"Doubling time, Passage 3",THF 0.1000 mg/L,18.2 h
same,"Maximum cell density, Average",THF 0.1000 mg/L,24.8 ×10^5 cells/ml
same,"Maximum cell density, Passage 1",THF 0.1000 mg/L,27.6 ×10^5 cells/ml
same,"Maximum cell density, Passage 2",THF 0.1000 mg/L,21.8 ×10^5 cells/ml
same,"Maximum cell density, Passage 3",THF 0.1000 mg/L,24.9 ×10^5 cells/ml
same,"Doubling time, Average",THF 0.2000 mg/L,20.8 h
same,"Doubling time, Passage 1",THF 0.2000 mg/L,22.7 h
same,"Doubling time, Passage 2",THF 0.2000 mg/L,21.4 h
